# How the values were obtained:
# Experiment in all cases: post-emergence herbicidal activity, greenhouse
# Type in all cases: in vivo
# Barnyardgrass = conditions: 4 WAT
# Procedure, shortened: (§1)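 Plants grown from seed or perennial propagules in greenhouse soil pans were sprayed at two to three weeks with compound solution or suspension containing about 0.4% emulsifier, at the stated application rates. Injury relative to untreated controls was scored at approximately two and four weeks after treatment on a post-emergence activity index.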
# Canada Thistle = conditions: Table I, 4 WAT
# Procedure, shortened: as §1
# Cocklebur = conditions: 4 WAT
# Procedure, shortened: as §1
# Crabgrass = conditions: Table II, 4 WAT
# Procedure, shortened: as §1
# Downy Brome = conditions: 4 WAT
# Procedure, shortened: as §1
# Hemp Sesbania = conditions: Table II, 4 WAT
# Procedure, shortened: as §1
# Johnsongrass = conditions: Table I, 4 WAT
# Procedure, shortened: as §1
# Lambsquarters = conditions: 4 WAT
# Procedure, shortened: as §1
# Morningglory = conditions: 4 WAT
# Procedure, shortened: as §1
# Panicum Spp = conditions: Table II, 4 WAT
# Procedure, shortened: as §1
# Quackgrass = conditions: Table I, 4 WAT
# Procedure, shortened: as §1
# Rice = conditions: Table II, 4 WAT
# Procedure, shortened: as §1
# Smartweed = conditions: 4 WAT
# Procedure, shortened: as §1
# Sorghum = conditions: Table II, 4 WAT
# Procedure, shortened: as §1
# Soybean = conditions: Table II, 4 WAT
# Procedure, shortened: as §1
# Sugar Beet = conditions: Table II, 4 WAT
# Procedure, shortened: as §1
# Velvetleaf = conditions: 4 WAT
# Procedure, shortened: as §1
# Wheat = conditions: Table II, 4 WAT
# Procedure, shortened: as §1
# Wild Buckwheat = conditions: Table II, 4 WAT
# Procedure, shortened: as §1
# Yellow Nutsedge = conditions: Table I, 4 WAT
# Procedure, shortened: as §1
smiles,measurement,setting,value
N#CCN(CP(=O)(Oc1ccccc1)Oc1ccccc1)SCl [I],post-emergence herbicidal activity index,"Barnyardgrass; Table I, 5.6 kg/h",1 (25-49% control)
same,post-emergence herbicidal activity index,"Barnyardgrass; Table I, 11.2 kg/h",2 (50-74% control)
same,post-emergence herbicidal activity index,"Barnyardgrass; Table II, 0.28 kg/h",0 (0-24% control)
same,post-emergence herbicidal activity index,"Barnyardgrass; Table II, 1.12 kg/h",1 (25-49% control)
same,post-emergence herbicidal activity index,"Barnyardgrass; Table II, 5.6 kg/h",2 (50-74% control)
same,post-emergence herbicidal activity index,Canada Thistle; 5.6 kg/h,1 (25-49% control)
same,post-emergence herbicidal activity index,Canada Thistle; 11.2 kg/h,2 (50-74% control)
same,post-emergence herbicidal activity index,"Cocklebur; Table I, 5.6 kg/h",3 (75-99% control)
same,post-emergence herbicidal activity index,"Cocklebur; Table I, 11.2 kg/h",2 (50-74% control)
same,post-emergence herbicidal activity index,"Cocklebur; Table II, 0.28 kg/h",2 (50-74% control)
same,post-emergence herbicidal activity index,"Cocklebur; Table II, 1.12 kg/h",2 (50-74% control)
same,post-emergence herbicidal activity index,"Cocklebur; Table II, 5.6 kg/h",2 (50-74% control)
same,post-emergence herbicidal activity index,Crabgrass; 0.28 kg/h,0 (0-24% control)
same,post-emergence herbicidal activity index,Crabgrass; 1.12 kg/h,2 (50-74% control)
same,post-emergence herbicidal activity index,"Downy Brome; Table I, 5.6 kg/h",0 (0-24% control)
same,post-emergence herbicidal activity index,"Downy Brome; Table I, 11.2 kg/h",2 (50-74% control)
same,post-emergence herbicidal activity index,"Downy Brome; Table II, 0.28 kg/h",1 (25-49% control)
same,post-emergence herbicidal activity index,"Downy Brome; Table II, 1.12 kg/h",0 (0-24% control)
same,post-emergence herbicidal activity index,"Downy Brome; Table II, 5.6 kg/h",1 (25-49% control)
same,post-emergence herbicidal activity index,Hemp Sesbania; 0.28 kg/h,0 (0-24% control)
same,post-emergence herbicidal activity index,Hemp Sesbania; 1.12 kg/h,0 (0-24% control)
same,post-emergence herbicidal activity index,Hemp Sesbania; 5.6 kg/h,2 (50-74% control)
same,post-emergence herbicidal activity index,Johnsongrass; 5.6 kg/h,1 (25-49% control)
same,post-emergence herbicidal activity index,Johnsongrass; 11.2 kg/h,1 (25-49% control)
same,post-emergence herbicidal activity index,"Lambsquarters; Table I, 5.6 kg/h",4 (100% control)
same,post-emergence herbicidal activity index,"Lambsquarters; Table I, 11.2 kg/h",3 (75-99% control)
same,post-emergence herbicidal activity index,"Lambsquarters; Table II, 0.28 kg/h",2 (50-74% control)
same,post-emergence herbicidal activity index,"Lambsquarters; Table II, 1.12 kg/h",4 (100% control)
same,post-emergence herbicidal activity index,"Lambsquarters; Table II, 5.6 kg/h",4 (100% control)
same,post-emergence herbicidal activity index,"Morningglory; Table I, 5.6 kg/h",2 (50-74% control)
same,post-emergence herbicidal activity index,"Morningglory; Table I, 11.2 kg/h",2 (50-74% control)
same,post-emergence herbicidal activity index,"Morningglory; Table II, 0.28 kg/h",0 (0-24% control)
same,post-emergence herbicidal activity index,"Morningglory; Table II, 1.12 kg/h",1 (25-49% control)
same,post-emergence herbicidal activity index,"Morningglory; Table II, 5.6 kg/h",2 (50-74% control)
same,post-emergence herbicidal activity index,Panicum Spp; 0.28 kg/h,0 (0-24% control)
same,post-emergence herbicidal activity index,Panicum Spp; 1.12 kg/h,0 (0-24% control)
same,post-emergence herbicidal activity index,Panicum Spp; 5.6 kg/h,1 (25-49% control)
same,post-emergence herbicidal activity index,Quackgrass; 5.6 kg/h,0 (0-24% control)
same,post-emergence herbicidal activity index,Quackgrass; 11.2 kg/h,1 (25-49% control)
same,post-emergence herbicidal activity index,Rice; 0.28 kg/h,0 (0-24% control)
same,post-emergence herbicidal activity index,Rice; 1.12 kg/h,0 (0-24% control)
same,post-emergence herbicidal activity index,Rice; 5.6 kg/h,1 (25-49% control)
same,post-emergence herbicidal activity index,"Smartweed; Table I, 5.6 kg/h",0 (0-24% control)
same,post-emergence herbicidal activity index,"Smartweed; Table I, 11.2 kg/h",2 (50-74% control)
same,post-emergence herbicidal activity index,"Smartweed; Table II, 0.28 kg/h",1 (25-49% control)
same,post-emergence herbicidal activity index,"Smartweed; Table II, 1.12 kg/h",0 (0-24% control)
same,post-emergence herbicidal activity index,Sorghum; 0.28 kg/h,1 (25-49% control)
same,post-emergence herbicidal activity index,Sorghum; 1.12 kg/h,2 (50-74% control)
same,post-emergence herbicidal activity index,Sorghum; 5.6 kg/h,3 (75-99% control)
same,post-emergence herbicidal activity index,Soybean; 0.28 kg/h,1 (25-49% control)
same,post-emergence herbicidal activity index,Soybean; 1.12 kg/h,1 (25-49% control)
same,post-emergence herbicidal activity index,Soybean; 5.6 kg/h,2 (50-74% control)
same,post-emergence herbicidal activity index,Sugar Beet; 0.28 kg/h,0 (0-24% control)
same,post-emergence herbicidal activity index,Sugar Beet; 1.12 kg/h,0 (0-24% control)
same,post-emergence herbicidal activity index,Sugar Beet; 5.6 kg/h,0 (0-24% control)
same,post-emergence herbicidal activity index,"Velvetleaf; Table I, 5.6 kg/h",2 (50-74% control)
same,post-emergence herbicidal activity index,"Velvetleaf; Table I, 11.2 kg/h",2 (50-74% control)
same,post-emergence herbicidal activity index,"Velvetleaf; Table II, 0.28 kg/h",1 (25-49% control)
same,post-emergence herbicidal activity index,"Velvetleaf; Table II, 1.12 kg/h",1 (25-49% control)
same,post-emergence herbicidal activity index,"Velvetleaf; Table II, 5.6 kg/h",2 (50-74% control)
same,post-emergence herbicidal activity index,Wheat; 0.28 kg/h,0 (0-24% control)
same,post-emergence herbicidal activity index,Wheat; 1.12 kg/h,1 (25-49% control)
same,post-emergence herbicidal activity index,Wheat; 5.6 kg/h,1 (25-49% control)
same,post-emergence herbicidal activity index,Wild Buckwheat; 0.28 kg/h,0 (0-24% control)
same,post-emergence herbicidal activity index,Wild Buckwheat; 1.12 kg/h,0 (0-24% control)
same,post-emergence herbicidal activity index,Wild Buckwheat; 5.6 kg/h,2 (50-74% control)
same,post-emergence herbicidal activity index,Yellow Nutsedge; 5.6 kg/h,2 (50-74% control)
same,post-emergence herbicidal activity index,Yellow Nutsedge; 11.2 kg/h,2 (50-74% control)

# From patent publication US4508663A, “Process for preparing thiosulfenamide derivatives of N-phosphonomethylglycinonitriles” (Monsanto Company, priority 1983, dated 1985)
